The source of these data is the supplement of paper PMC10307832.

Assay in all cases: relative viability (nuclei count vs DMSO), 5 days (fraction); higher = more cells survive
Compound in test [1]: CC[C@H](CO)Nc1nc(NCc2ccccc2)c2ncn(C(C)C)c2n1 [Seliciclib] + CCNC(=O)c1noc(-c2cc(C(C)C)c(O)cc2O)c1-c1ccc(CN2CCOCC2)cc1 [Luminespib] (partner 0.01 µM)
An outline of the steps: (§1)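 Lung cancer cell lines were pin-tool dosed in 1536-well plates on the day after seeding, with either a lone drug or a fixed anchor-drug dose plus five library-drug doses (not always all listed) in √10 steps. Nuclei were counted on 4× images after 5 days. Relative viability is the ratio of treated-well to vehicle-well nuclei counts, with each value a median of duplicate plates.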

Compound in test [2]: CC[C@H](CO)Nc1nc(NCc2ccccc2)c2ncn(C(C)C)c2n1 [Seliciclib] + CS(=O)(=O)CCNCc1ccc(-c2ccc3ncnc(Nc4ccc(OCc5cccc(F)c5)c(Cl)c4)c3c2)o1 [Lapatinib] (partner 2 µM)
An outline of the steps: as §1

Compound in test [3]: CC[C@H](CO)Nc1nc(NCc2ccccc2)c2ncn(C(C)C)c2n1 [Seliciclib] + Nc1ncn([C@H]2C[C@H](O)[C@@H](CO)O2)c(=O)n1 [Decitabine] (partner 2 µM)
An outline of the steps:
as §1

Compound in test [4]: CC[C@H](CO)Nc1nc(NCc2ccccc2)c2ncn(C(C)C)c2n1 [Seliciclib] + O=C(c1cc(Cc2n[nH]c(=O)c3ccccc23)ccc1F)N1CCN(C(=O)C2CC2)CC1 [Olaparib] (partner 8 µM)
Summed up:
as §1

LOU-NH91: the relative viability in test [1] (first compound 0.08 µM) came to 0.318; in test [1] (first compound 0.253 µM) it was 0.332; in test [1] (first compound 0.8 µM), 0.293; in test [1] (first compound 2.53 µM) it was 0.305; in test [1] (first compound 8 µM), 0.276; in test [2] (first compound 0.08 µM), 0.743. In addition, the relative viability in test [2] (first compound 0.253 µM) turned out to be 0.682; in test [2] (first compound 0.8 µM), 0.729; in test [2] (first compound 2.53 µM), 0.6; in test [2] (first compound 8 µM) it was 0.681; in test [3] (first compound 0.253 µM), 0.795; in test [3] (first compound 0.8 µM) it was 0.784. The relative viability in test [3] (first compound 2.53 µM) came out at 0.785; in test [3] (first compound 8 µM), 0.693; in test [4] (first compound 0.253 µM), 0.93; in test [4] (first compound 0.8 µM), 0.891; in test [4] (first compound 2.53 µM), 0.925; in test [4] (first compound 8 µM), 0.782.
Consider NCI-H2347, for which the relative viability in test [1] (first compound 0.08 µM) came to 0.428; in test [1] (first compound 0.253 µM), 0.328; in test [1] (first compound 0.8 µM), 0.512; in test [1] (first compound 2.53 µM) it was 0.412; in test [1] (first compound 8 µM), 0.721; in test [2] (first compound 0.08 µM) it was 0.867. For the same cell line, the relative viability in test [2] (first compound 0.253 µM) was found to be 0.858; in test [2] (first compound 0.8 µM), 0.835; in test [2] (first compound 2.53 µM), 0.974; in test [2] (first compound 8 µM), 0.905; in test [3] (first compound 0.08 µM) it was 0.66; in test [3] (first compound 0.253 µM) it was 0.522. Also, the relative viability in test [3] (first compound 0.8 µM) is 0.597; in test [3] (first compound 2.53 µM), 0.602; in test [3] (first compound 8 µM), 0.597; in test [4] (first compound 0.08 µM), 0.557; in test [4] (first compound 0.253 µM) it was 0.604; in test [4] (first compound 0.8 µM), 0.518. Also, the relative viability in test [4] (first compound 2.53 µM) turned out to be 0.579; in test [4] (first compound 8 µM) it was 0.557.
NCI-H2126: the relative viability in test [1] (first compound 0.08 µM) was 0.906; in test [1] (first compound 0.253 µM), 0.733; in test [1] (first compound 0.8 µM), 0.89; in test [1] (first compound 2.53 µM), 0.642; in test [1] (first compound 8 µM), 0.781; in test [2] (first compound 0.08 µM) it was 0.698. In addition, the relative viability in test [2] (first compound 0.253 µM) came to 0.656; in test [2] (first compound 0.8 µM) it was 0.737; in test [2] (first compound 2.53 µM), 0.552; in test [2] (first compound 8 µM), 0.613; in test [3] (first compound 0.08 µM), 0.567; in test [3] (first compound 0.253 µM), 0.565. Also, the relative viability in test [3] (first compound 0.8 µM) was determined as 0.606; in test [3] (first compound 2.53 µM), 0.55; in test [3] (first compound 8 µM) it was 0.47; in test [4] (first compound 0.08 µM), 0.886; in test [4] (first compound 0.253 µM), 0.953; in test [4] (first compound 0.8 µM) it was 0.888. In addition, the values for the relative viability in test [4] (first compound 2.53 µM) and in test [4] (first compound 8 µM) were 0.908 and 0.745, respectively.
As for HCC-827, the relative viability in test [1] (first compound 0.08 µM) came to 0.519; in test [1] (first compound 0.253 µM), 0.589; in test [1] (first compound 0.8 µM), 0.55; in test [1] (first compound 2.53 µM), 0.829; in test [1] (first compound 8 µM), 0.588; in test [2] (first compound 0.08 µM), 0.208. Besides, the relative viability worked out at 0.246 in test [2] (first compound 0.253 µM); 0.203 in test [2] (first compound 0.8 µM); 0.225 in test [2] (first compound 2.53 µM); 0.188 in test [2] (first compound 8 µM); 0.337 in test [3] (first compound 0.08 µM); 0.36 in test [3] (first compound 0.253 µM). For the same cell line, the relative viability came out at 0.327 in test [3] (first compound 0.8 µM); 0.287 in test [3] (first compound 2.53 µM); 0.273 in test [3] (first compound 8 µM); 0.623 in test [4] (first compound 0.08 µM); 0.66 in test [4] (first compound 0.253 µM); 0.644 in test [4] (first compound 0.8 µM). Further, the relative viability in test [4] (first compound 2.53 µM) worked out at 0.612; in test [4] (first compound 8 µM) it was 0.624.
Regarding NCI-H3122, the relative viability turned out to be 0.0896 in test [1] (first compound 0.08 µM); 0.1 in test [1] (first compound 0.8 µM); 0.0781 in test [1] (first compound 2.53 µM); 0.11 in test [1] (first compound 8 µM); 0.938 in test [2] (first compound 0.08 µM); 1.08 in test [2] (first compound 0.253 µM). In addition, the relative viability in test [2] (first compound 0.8 µM) amounted to 0.91; in test [2] (first compound 2.53 µM), 1.04; in test [2] (first compound 8 µM) it was 0.949; in test [3] (first compound 0.08 µM) it was 0.399; in test [3] (first compound 0.253 µM), 0.234; in test [3] (first compound 0.8 µM) it was 0.479. The relative viability in test [3] (first compound 2.53 µM) stood at 0.472; in test [3] (first compound 8 µM), 0.294; in test [4] (first compound 0.08 µM), 0.632; in test [4] (first compound 0.253 µM), 0.589; in test [4] (first compound 0.8 µM) it was 0.62; in test [4] (first compound 2.53 µM), 0.697. Moreover, in test [4] (first compound 8 µM), the relative viability was found to be 0.615.
On to HOP-62, for which the relative viability amounted to 0.863 in test [1] (first compound 0.08 µM); 0.933 in test [1] (first compound 0.253 µM); 0.919 in test [1] (first compound 0.8 µM); 1 in test [1] (first compound 2.53 µM); 0.851 in test [1] (first compound 8 µM); 0.937 in test [2] (first compound 0.08 µM). In addition, the relative viability in test [2] (first compound 0.253 µM) is 0.931; in test [2] (first compound 0.8 µM), 1.04; in test [2] (first compound 2.53 µM), 1.06; in test [2] (first compound 8 µM) it was 0.864; in test [3] (first compound 0.08 µM) it was 0.199; in test [3] (first compound 0.253 µM), 0.177. In addition, the relative viability is 0.223 in test [3] (first compound 0.8 µM); 0.235 in test [3] (first compound 2.53 µM); 0.253 in test [3] (first compound 8 µM); 0.445 in test [4] (first compound 0.08 µM); 0.398 in test [4] (first compound 0.253 µM); 0.299 in test [4] (first compound 0.8 µM). For the same cell line, the relative viability in test [4] (first compound 2.53 µM) amounted to 0.264; in test [4] (first compound 8 µM) it was 0.391.
Take HCC-44: the relative viability was determined as 0.913 in test [1] (first compound 0.08 µM); 1.07 in test [1] (first compound 0.253 µM); 1.01 in test [1] (first compound 0.8 µM); 0.997 in test [1] (first compound 2.53 µM); 0.726 in test [1] (first compound 8 µM); 0.972 in test [2] (first compound 0.08 µM). In addition, the relative viability came out at 1.08 in test [2] (first compound 0.253 µM); 0.981 in test [2] (first compound 0.8 µM); 0.933 in test [2] (first compound 2.53 µM); 0.925 in test [2] (first compound 8 µM); 0.946 in test [3] (first compound 0.08 µM); 0.996 in test [3] (first compound 0.253 µM). The relative viability is 0.99 in test [3] (first compound 0.8 µM); 0.927 in test [3] (first compound 2.53 µM); 0.906 in test [3] (first compound 8 µM); 0.978 in test [4] (first compound 0.08 µM); 1.03 in test [4] (first compound 0.253 µM); 1.01 in test [4] (first compound 0.8 µM). The relative viability in test [4] (first compound 2.53 µM) was determined as 0.966; in test [4] (first compound 8 µM), 0.973.
